{
  "source": "patent US6576620B2",
  "about": "“Method of identifying partial adenosine A1 receptor agonists” (CV Therapeutics, Inc., priority 1999, dated 2003)",
  "tested_on": "guinea pig isolated heart",
  "assay": "Monophasic action potential duration, isolated heart",
  "method": "Signals were considered adequate if they were stable for at least 5-10 min and the amplitudes exceeded 10 mV. The data were digitized at 2 kHz by a DT-2801A digitizing board (Data Translation, Marlboro, Mass.) and were saved for analysis using the Snapshot data acquisition program (Snapshot Storage Scope, HEM Data Corp., Southfield, Mich.). The duration of the atrial and ventricular monophasic action potentials was measured from onset of depolarization to either 50 or 90% of repolarization.",
  "data": [
    {"smiles": "CNC(=O)OC[C@H]1OC(n2cnc3c(N[C@@H]4CCOC4)ncnc32)[C@H](O)[C@@H]1O", "note": "(stereo partly drawn) [Compound 6 of Example 2, [(5-{6-[((3R)oxolan-3-yl)amino]purin-9-yl}(3 S,2R,4R)-3,4-dihydroxyoxolan-2-yl)methoxy]-N-methylcarboxamide]", "values": [
      {"measurement": "effect on duration of ventricular or atrial monophasic action potential", "result": "no significant effect"},
      {"measurement": "duration of atrial monophasic action potential at 50% of repolarization", "setting": "20 μM compound, control 41±3", "result": "41 ± 3", "unit": "ms"},
      {"measurement": "duration of atrial monophasic action potential at 90% of repolarization", "setting": "20 μM compound, control 66±4", "result": "74 ± 4", "unit": "ms"},
      {"measurement": "duration of ventricular monophasic action potential at 90% of repolarization", "setting": "20 μM compound, control 158±4", "result": "160 ± 7", "unit": "ms"}
    ]}
  ]
}
